The values below come from patent US11090304B2 (Amgen Inc., priority 2018, dated 2021).

Assay [1] has as its system Phosphorylation of ERK1/2 in MIA PaCa-2 cells. Description: Phospho-ERK1/2 MSD assay in MIA PaCa-2 cells. It is filed as cell-based. The procedure, abridged:
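Following a 2 or 4 h incubation with titrated compound, cells receive a 10 min pulse of 10 ng/mL EGF. Phospho-ERK1/2 in RIPA lysates is then quantified by MSD immunoassay, and IC50 values come from a four-parameter logistic model.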

Assay [2] relates to Phosphorylation of ERK1/2 in A549 cells. The experiment in a line: Phospho-ERK1/2 MSD assay in A549 cells. It is filed as cell-based. How it is done: For compounds in Table 89, the following assay conditions were employed:
Phospho-ERK1/2 MSD Assay:
Sixteen hours prior to compound treatment, MIA PaCa-2 or A549 cells were seeded in 96-well cell culture plates at a density of 25,000 cells/well and incubated at 37° C., 5% CO2. A compound dose-response titration was diluted in growth media, added to appropriate wells of a cell culture plate, and then incubated at 37° C., 5% CO2 for 2 or 4 hours (see Table 15). Following compound treatment, cells were stimulated with 10 ng/mL EGF (Roche 11376454001) for 10 min, washed with ice-cold Dulbecco's phosphate-buffered saline, no Ca^2+ or Mg^2+ (ThermoFisher Scientific 14190144), and then lysed in RIPA buffer (50 mM Tris-HCl pH 7.5, 1% Igepal, 0.5% sodium deoxycholate, 150 mM NaCl, and 0.5% sodium dodecyl sulfate) containing protease inhibitors (Roche 4693132001) and phosphatase inhibitors (Roche 4906837001). Phosphorylation of ERK1/2 in compound-treated lysates was assayed using Phospho-ERK1/2 Whole Cell Lysate kits (Meso Scale Discovery K151DWD) according to the manufacturer's protocol. Assay plates were read on a Meso Scale Discovery Sector Imager 6000, and data were analyzed using a 4-parameter logistic model to calculate IC50 values.

Where [3] appears, read: read-out: p-ERK IC50 (2 h; MIA PaCa-2), 2 h compound treatment.
Where [4] appears, read: Homo sapiens, A549, 2 h, read-out: p-ERK IC50 (2 h; A549), 2 h compound treatment.
[5] abbreviates: Homo sapiens, MIA PaCa-2, 4 h, read-out: p-ERK IC50 (4 h; MIA PaCa-2), 4 h compound treatment.
[6] abbreviates: Homo sapiens, A549, 4 h, read-out: p-ERK IC50 (4 h; A549), 4 h compound treatment.
[7] abbreviates: Homo sapiens, MIA PaCa-2, 2 h, read-out: p-ERK IC50 (2 h; MIA PaCa-2), 2 h compound treatment.

Like-named read-outs stand apart in the source and are kept apart here.

As for `C=CC(=O)N1CCN(c2nc(=O)n(-c3ccccc3C(C)C)c3cc(Br)c(Cl)cc23)[C@@H](C)C1` (single isomer, unassigned) [Example 9-17-1], the IC50 (usually the concentration that inhibits the measured activity by half) in assay [1] (read-out: p-ERK IC50 (4 h; MIA PaCa-2), 4 h compound treatment) amounted to 2.18 µM; in assay [2] (read-out: p-ERK IC50 (4 h; A549), 4 h compound treatment), 75.8 µM.
Take `C=CC(=O)N1CCN(c2nc(=O)n(-c3ccccc3C(C)C)c3nc(-c4ccccc4Cl)c(Cl)cc23)[C@@H](C)C1` (single isomer, unassigned) [Example 54-84-1]: the IC50 in assay [1] (setting [3]) is 0.744 µM; in assay [2] (setting [4]) it was not below 100 µM.
With `C=CC(=O)N1CCN(c2nc(=O)n(-c3ccccc3C(C)C)c3nc(-c4ccccc4F)c(Cl)cc23)[C@@H](C)C1` (single isomer, unassigned) [Example 54-86-1], the IC50 in assay [1] (setting [3]) was 0.67 µM; in assay [2] (setting [4]), not below 10 µM.
Turning to `C=CC(=O)N1CCN(c2nc(=O)n(-c3ccccc3C(C)C)c3nc(-c4c(O)cccc4F)c(Cl)cc23)CC1` (single isomer, unassigned) [Example 60-24-1, (M)-6-chloro-7-(2-fluoro-6-hydroxyphenyl)-1-(2-(2-propanyl)phenyl)-4-(4-(2-propenoyl)-1-piperazinyl)pyrido[2,3-d]pyrimidin-2(1H)-one], in assay [2] (setting [4]), the IC50 is not below 100 µM.
As for `C=CC(=O)N1CCN(c2nc(=O)n(-c3ccccc3C(C)C)c3cc(-c4ccccc4F)c(Cl)cc23)[C@@H](C)C1` (single isomer, unassigned) [Example 62-1-1], the IC50 in assay [1] (setting [3]) was 0.431 µM; in assay [2] (setting [4]), not below 10 µM.
Turning to `C=CC(=O)N1CCN(c2nc(=O)n(-c3ccccc3C(C)C)c3cc(-c4ccccc4F)c(Cl)cc23)CC1` (single isomer, unassigned) [Example 88-1, 6-chloro-7-(2-fluorophenyl)-1-(2-(2-propanyl)phenyl)-4-(4-(2-propenoyl)-1-piperazinyl)-2(1H)-quinazolinone], in assay [2] (setting [4]), the IC50 was not below 10 µM.
As for `C=CC(=O)N1CCN(c2nc(=O)n(-c3ccccc3C(C)C)c3c(C)c(-c4c(O)cccc4F)c(Cl)cc23)[C@@H](C)C1` (single isomer, unassigned) [Example 90-1], the results for the IC50 in assay [1] (setting [5]) and in assay [2] (setting [6]) were 0.221 µM and not below 33.3 µM, respectively.
Regarding `C=CC(=O)N1CCN(c2nc(=O)n(-c3ccccc3C(C)C)c3cc(Br)c(Cl)cc23)[C@@H](C)C1` [Example 9-17], the IC50 in assay [1] (setting [5]) is 1.11 µM; in assay [2] (setting [6]) it was 74.4 µM.
Take `C=CC(=O)N1CCN(c2nc(=O)n(C(CC)CC)c3nc(-c4ccccc4F)c(Cl)cc23)[C@@H](C)C1` [Example 54-2, 6-chloro-7-(2-fluorophenyl)-4-((2S)-2-methyl-4-(2-propenoyl)-1-piperazinyl)-1-(3-pentanyl) pyrido[2,3-d]pyrimidin-2(1H)-one]: the IC50 in assay [1] (setting [7]) is 66.6 µM; in assay [1] (setting [5]), 55.6 µM; in assay [2] (setting [4]) it was not below 100 µM; in assay [2] (setting [6]) it was not below 100 µM.
`C=CC(=O)N1CCN(c2nc(=O)n(-c3c(CC)cccc3CC)c3nc(C4CCCC4)c(Cl)cc23)[C@@H](C)C1` [Example 54-4, 6~chloro-7-cyclopentyl-1-(2,6-diethylphenyl)-4-((2S)-2-methyl-4-(2-propenoyl)-1-piperazinyl) pyrido[2,3-d]pyrimidin-2(1H)-one]: the IC50 in assay [1] (setting [7]) stood at 2.25 µM; in assay [2] (setting [4]) it was 48.9 µM.
Turning to `C=CC(=O)N1CCN(c2nc(=O)n(-c3c(CC)cccc3CC)c3nc(-c4c(C)ccc5[nH]ncc45)c(Cl)cc23)[C@@H](C)C1` [Example 54-66, 6-chloro-1-(2,6-diethylphenyl)-7-(5-methyl-1H-indazol-4-yl)-4-((2S)-2-methyl-4-(2-propenoyl)-1-piperazinyl) pyrido[2,3-d]pyrimidin-2(1H)-one], the half-inhibitory concentration (IC50) is 0.1 µM in assay [1] (setting [7]), 0.122 µM in assay [1] (setting [5]), not below 10 µM in assay [2] (setting [4]) and not below 100 µM in assay [2] (setting [6]).
For `C=CC(=O)N1CCN(c2nc(=O)n([C@@H]3CCc4ccccc43)c3nc(-c4ccccc4F)c(Cl)cc23)[C@@H](C)C1` [Example 54-67, 6-chloro-1-((1R)-2,3-dihydro-1H-inden-1-yl)-7-(2-fluorophenyl)-4-((2S)-2-methyl-4-(2-propenoyl)-1-piperazinyl) pyrido[2,3-d]pyrimidin-2(1H)-one], the IC50 in assay [1] (setting [7]) and in assay [2] (setting [4]) was not below 10 µM in each case.
Take `C=CC(=O)N1CCN(c2nc(=O)n(-c3ccccc3C(C)C)c3nc(Cl)c(Cl)cc23)CC1` [Example 54-80, 6,7-dichloro-1-(2-(2-propanyl)phenyl)-4-(4-(2-propenoyl)-1-piperazinyl) pyrido[2,3-d]pyrimidin-2(1H)-one]: the IC50 is 5.64 µM in assay [1] (setting [5]) and not below 100 µM in assay [2] (setting [6]).
As to `C=CC(=O)N1CCN(c2nc(=O)n(-c3ccccc3C(C)C)c3nc(-c4ccccc4Cl)c(Cl)cc23)[C@@H](C)C1` [Example 54-84, 6-chloro-7-(2-chlorophenyl)-4-((2S)-2-methyl-4-(2-propenoyl)-1-piperazinyl)-1-(2-(2-propanyl)phenyl)pyrido [2,3-d]pyrimidin-2(1H)-one], the IC50 in assay [1] (setting [7]) is 0.054 µM; in assay [1] (setting [5]), 0.084 µM; in assay [2] (setting [4]) it was not below 100 µM; in assay [2] (setting [6]), not below 100 µM.
Consider `C=CC(=O)N1CCN(c2nc(=O)n(-c3ccccc3C(C)C)c3nc(-c4ccc(F)cc4F)c(Cl)cc23)[C@@H](C)C1` [Example 54-85, 6-chloro-7-(2,4-difluorophenyl)-4-((2S)-2-methyl-4-(2-propenoyl)-1-piperazinyl)-1-(2-(2-propanyl)phenyl)pyrido [2,3-d]pyrimidin-2(1H)-one], for which the IC50 in assay [1] (setting [7]) is 0.16 µM; in assay [2] (setting [4]) it was not below 100 µM.
For `C=CC(=O)N1CCN(c2nc(=O)n(-c3ccccc3C(C)C)c3nc(-c4ccccc4F)c(Cl)cc23)[C@@H](C)C1` [Example 54-86, 6-chloro-7-(2-fluorophenyl)-4-((2S)-2-methyl-4-(2-propenoyl)-1-piperazinyl)-1-(2-(2-propanyl)phenyl)pyrido [2,3-d]pyrimidin-2(1H)-one], the IC50 in assay [1] (setting [7]) is 0.09 µM; in assay [2] (setting [4]) it was not below 33.3 µM.
For `C=CC(=O)N1CCN(c2nc(=O)n(-c3ccccc3C(C)C)c3nc(Oc4cccc(F)c4)c(Cl)cc23)CC1` [Example 60-23, 6-chloro-7-(3-fluorophenoxy)-1-(2-(2-propanyl)phenyl)-4-(4-(2-propenoyl)-1-piperazinyl)pyrido[2,3-d]pyrimidin-2(1H)-one], the IC50 amounted to 4.49 µM in assay [1] (setting [5]) and 37.9 µM in assay [2] (setting [6]).
Turning to `C=CC(=O)N1CCN(c2nc(=O)n(C(C(C)C)C(C)C)c3nc(Cl)c(Cl)cc23)CC1` [Example 60-35, 6,7-dichloro-1-(2,4-dimethyl-3-pentanyl)-4-(4-(2-propenoyl)-1-piperazinyl)pyrido[2,3-d]pyrimidin-2(1H)-one], the IC50 is 10.7 µM in assay [1] (setting [5]) and 46.2 µM in assay [2] (setting [6]).
Take `C=CC(=O)N1CCN(c2nc(=O)n(-c3ccccc3C(C)C)c3cc(-c4ccccc4F)c(Cl)cc23)[C@@H](C)C1` [Example 62-1, (S)-4-(4-acryloyl-2-methylpiperazin-1-yl)-6-chloro-7-(2-fluorophenyl)-1-(2-isopropylphenyl)quinazolin-2(1H)-one]: the IC50 in assay [1] (setting [7]) is 0.116 µM; in assay [2] (setting [4]) it was not below 100 µM.
For `C=CC(=O)N1CCN(c2nc(=O)n(-c3ccccc3C(C)C)c3cc(-c4ccccc4C(F)(F)F)c(Cl)cc23)[C@@H](C)C1` [Example 62-2, 6-chloro-4-((2S)-2-methyl-4-(2-propenoyl)-1-piperazinyl)-1-(2-(2-propanyl)phenyl)-7-(2-(trifluoromethyl)phenyl)-2(1H)-quinazolinone], in assay [2] (setting [4]), the IC50 is not below 10 µM.
